Here are results for 41 molecules from patent US11014911B2, “CDK2 inhibitors” (Pfizer Inc., priority 2019, dated 2021).

The target in assay [1] is CDK2/Cyclin E1 full length (Homo sapiens (Human), UniProt P24941). Description: CDK2/Cyclin E1 full length mobility shift assay. It is filed as biochemical.
The target of a further assay is GSK3β (H350L) (Homo sapiens (Human), UniProt P49841). Description: biochemical. Particulars: GSK3β Ki (nM).
Sequence of GSK3β (H350L) (P49841 whole entry, stated change not applied): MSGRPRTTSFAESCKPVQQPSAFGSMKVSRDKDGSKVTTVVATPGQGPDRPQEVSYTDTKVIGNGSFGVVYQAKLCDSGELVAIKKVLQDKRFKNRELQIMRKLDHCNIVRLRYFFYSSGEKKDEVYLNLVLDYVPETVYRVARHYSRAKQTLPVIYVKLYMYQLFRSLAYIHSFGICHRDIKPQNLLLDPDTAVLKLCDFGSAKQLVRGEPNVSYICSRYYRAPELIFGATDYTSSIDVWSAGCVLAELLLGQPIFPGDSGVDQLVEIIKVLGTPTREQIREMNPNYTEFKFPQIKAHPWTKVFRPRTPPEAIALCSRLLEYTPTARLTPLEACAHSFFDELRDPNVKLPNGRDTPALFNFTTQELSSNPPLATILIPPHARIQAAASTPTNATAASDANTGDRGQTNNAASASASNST

Method for GSK3β (H350L): The assay was initiated with the addition of ATP, following 15 minutes pre-incubation of enzyme and inhibitor at room temperature in the reaction mixture. The reaction was stopped after 30 minutes at room temperature by the addition of 50 μL of 80 mM EDTA.

For `COc1ccc(CC(=O)Nc2cc([C@H]3CC[C@@H](OC(=O)N4C[C@@H](C#N)[C@@H]4C)C3)[nH]n2)cn1` (single isomer, unassigned) [Example 158], the Ki (in general, the equilibrium dissociation constant of an inhibitor or competing ligand from its target) in assay [1] stood at 0.17 nM; at GSK3β (H350L), 0.78 nM.

For the molecule `Cc1ncc(CC(=O)Nc2cc([C@H]3CC[C@@H](OC(=O)N4C[C@@H](C#N)[C@@H]4C)C3)[nH]n2)s1` (single isomer, unassigned) [Example 160], the results for the Ki (in assay [1]; on GSK3β (H350L)) were 0.15 nM and 1.72 nM, respectively.

As to `C[C@H]1[C@H](C#N)CN1C(=O)O[C@@H]1CC[C@H](c2cc(NC(=O)Cc3ccccc3)n[nH]2)C1` (single isomer, unassigned) [Example 161], the Ki in assay [1] worked out at 0.15 nM; at GSK3β (H350L), 5.93 nM.

On to `COc1ccc(S(C)(=O)=O)c(CC(=O)Nc2cc([C@H]3CC[C@@H](OC(=O)NC(C)C(F)(F)F)C3)[nH]n2)c1` (single isomer, unassigned) [Example 291], for which the Ki in assay [1] is 0.43 nM; on GSK3β (H350L) it was greater than 47.6 nM.

For `C[C@H](F)[C@H](C)NC(=O)O[C@@H]1CC[C@H](c2cc(NC(=O)Cc3cnn(C)c3)n[nH]2)C1` (single isomer, unassigned) [Example 382, (1R,3S)-3-(3-{[(1-methyl-1H-pyrazol-4-yl)acetyl]amino}-1H-pyrazol-5-yl)cyclopentyl [(2S*,3S*)-3-fluorobutan-2-yl]carbamate], the inhibition constant Ki in assay [1] came out at 0.77 nM; on GSK3β (H350L), 74.2 nM.

For the molecule `COc1cc(CC(=O)Nc2cc([C@H]3CC[C@@H](OC(=O)N[C@@H](C)[C@H](C)F)C3)[nH]n2)ccn1` (single isomer, unassigned) [Example 385, (1R,3S)-3-(3-{[(2-methoxypyridin-4-yl)acetyl]amino}-1H-pyrazol-5-yl)cyclopentyl [(2S*,3S*)-3-fluorobutan-2-yl]carbamate], the values for the inhibitory constant (Ki) (in assay [1]; on GSK3β (H350L)) were 0.52 nM and 25.9 nM, respectively.

For `CC(CC(F)F)NC(=O)O[C@@H]1CC[C@H](c2cc(NC(=O)Cc3cnn(C)c3)n[nH]2)C1` (single isomer, unassigned) [Example 386], the inhibition constant (Ki) in assay [1] turned out to be 0.66 nM; at GSK3β (H350L), 45.9 nM.

`Cc1ccc(CC(=O)Nc2cc([C@H]3CC[C@@H](OC(=O)NC(C)C(C)(F)F)C3)[nH]n2)cn1` (single isomer, unassigned) [Example 388]: the Ki in assay [1] is 2.34 nM; on GSK3β (H350L) it was 36.9 nM.

Turning to `Cc1ccc(CC(=O)Nc2cc([C@H]3CC[C@@H](OC(=O)NC(C)C(C)(F)F)C3)[nH]n2)cn1` (single isomer, unassigned) [Example 389], the Ki in assay [1] is 0.83 nM; at GSK3β (H350L), 18.3 nM.

For the molecule `Cc1ncc(CC(=O)Nc2cc([C@H]3CC[C@@H](OC(=O)NC(C)C(C)(F)F)C3)[nH]n2)s1` (single isomer, unassigned) [Example 391], the inhibition constant Ki in assay [1] amounted to 1.38 nM; on GSK3β (H350L), 38 nM.

As to `COc1cc(CC(=O)Nc2cc([C@H]3CC[C@@H](OC(=O)NC(C)C(C)(F)F)C3)[nH]n2)ccn1` (single isomer, unassigned) [Example 393], the inhibition constant (Ki) in assay [1] turned out to be 0.97 nM; on GSK3β (H350L), 34 nM.

Turning to `CCC(NC(=O)O[C@@H]1CC[C@H](c2cc(NC(=O)Cc3cc(C)no3)n[nH]2)C1)C(F)(F)F` (single isomer, unassigned) [Example 396], the inhibition constant Ki in assay [1] turned out to be 2.1 nM; at GSK3β (H350L) it was 139 nM.

`CCC(NC(=O)O[C@@H]1CC[C@H](c2cc(NC(=O)Cc3cc(C)no3)n[nH]2)C1)C(F)(F)F` (single isomer, unassigned) [Example 397]: the Ki was 1.87 nM in assay [1] and 155 nM at GSK3β (H350L).

With `CCC(NC(=O)O[C@@H]1CC[C@H](c2cc(NC(=O)Cc3ccc(C)nc3)n[nH]2)C1)C(F)(F)F` (single isomer, unassigned) [Example 398], the inhibition constant Ki in assay [1] turned out to be 0.65 nM; at GSK3β (H350L), 44.1 nM.

In the case of `CCC(NC(=O)O[C@@H]1CC[C@H](c2cc(NC(=O)Cc3ccc(C)nc3)n[nH]2)C1)C(F)(F)F` (single isomer, unassigned) [Example 399], the Ki in assay [1] stood at 0.47 nM; on GSK3β (H350L) it was 68.8 nM.

Regarding `Cc1c(CC(=O)Nc2cc([C@H]3CC[C@@H](OC(=O)NC(C)CC(F)(F)F)C3)[nH]n2)cnn1C` (single isomer, unassigned) [Example 401], the inhibitory constant (Ki) in assay [1] turned out to be 0.34 nM; on GSK3β (H350L), 32.9 nM.

Regarding `CCC(NC(=O)O[C@@H]1CC[C@H](c2cc(NC(=O)Cc3cnc(C)s3)n[nH]2)C1)C(F)(F)F` (single isomer, unassigned) [Example 403], the inhibition constant Ki in assay [1] was determined as 1.76 nM; at GSK3β (H350L), 76.1 nM.

Regarding `CCC(NC(=O)O[C@@H]1CC[C@H](c2cc(NC(=O)Cc3cnc(C)s3)n[nH]2)C1)C(F)(F)F` (single isomer, unassigned) [Example 404], the inhibitory constant (Ki) in assay [1] came out at 1.38 nM; on GSK3β (H350L), 84.3 nM.

Turning to `CCC(NC(=O)O[C@@H]1CC[C@H](c2cc(NC(=O)Cc3ccnc(OC)c3)n[nH]2)C1)C(F)(F)F` (single isomer, unassigned) [Example 405], the Ki in assay [1] was 1.37 nM; on GSK3β (H350L) it was 97.9 nM.

As for `CCC(NC(=O)O[C@@H]1CC[C@H](c2cc(NC(=O)Cc3ccnc(OC)c3)n[nH]2)C1)C(F)(F)F` (single isomer, unassigned) [Example 406], the inhibition constant Ki in assay [1] was determined as 1.81 nM; at GSK3β (H350L) it was 73.3 nM.

For the molecule `CC(CC(F)(F)F)NC(=O)O[C@@H]1CC[C@H](c2cc(NC(=O)Cc3cnn(C(C)C)c3)n[nH]2)C1` (single isomer, unassigned) [Example 408], the values for the Ki (in assay [1]; on GSK3β (H350L)) were 0.29 nM and 17.9 nM, respectively.

Consider `CC(CC(F)(F)F)NC(=O)O[C@@H]1CC[C@H](c2cc(NC(=O)c3ccnn3CCN(C)C)[nH]n2)C1` (single isomer, unassigned) [Example 410], for which the inhibitory constant (Ki) in assay [1] stood at 0.42 nM; at GSK3β (H350L), 55.5 nM.

Consider `CC(CC(F)(F)F)N(C)C(=O)O[C@@H]1CC[C@H](c2cc(NC(=O)Cc3cnn(C)c3)n[nH]2)C1` (single isomer, unassigned) [Example 413], for which the values for the Ki (in assay [1]; on GSK3β (H350L)) were 0.44 nM and 14.7 nM, respectively.

Consider `CC(CC(F)(F)F)N(C)C(=O)O[C@@H]1CC[C@H](c2cc(NC(=O)Cc3cnn(C)c3)n[nH]2)C1` (single isomer, unassigned) [Example 414], for which the Ki in assay [1] amounted to 0.42 nM; at GSK3β (H350L) it was 3.44 nM.

As to `CC1(NC(=O)O[C@@H]2CC[C@H](c3cc(NC(=O)Cc4ccno4)n[nH]3)C2)CCOC1` (single isomer, unassigned) [Example 473], the values for the inhibition constant (Ki) (in assay [1]; on GSK3β (H350L)) were 0.36 nM and 66.2 nM, respectively.

Regarding `Cc1cnc(CC(=O)Nc2cc([C@@H]3CC[C@H](OC(=O)NC4(C)CCOC4)C3)[nH]n2)o1` (single isomer, unassigned) [Example 475], the Ki in assay [1] turned out to be 0.83 nM; at GSK3β (H350L), 23.9 nM.

Take `Cc1cnc(CC(=O)Nc2cc([C@@H]3CC[C@H](OC(=O)NC4(C)CCOC4)C3)[nH]n2)o1` (single isomer, unassigned) [Example 476]: the inhibition constant (Ki) in assay [1] worked out at 0.45 nM; at GSK3β (H350L) it was 30.9 nM.

For the molecule `Cc1cnc(CC(=O)Nc2cc([C@H]3CC[C@@H](OC(=O)NC4(C)CCOC4)C3)[nH]n2)o1` (single isomer, unassigned) [Example 477], the Ki in assay [1] was 1.04 nM; on GSK3β (H350L) it was 59.2 nM.

As for `Cc1ncc(CC(=O)Nc2cc([C@H]3CC[C@@H](OC(=O)NC4(C)CCOC4)C3)[nH]n2)s1` (single isomer, unassigned) [Example 481], the Ki in assay [1] worked out at 0.53 nM; on GSK3β (H350L), 44.6 nM.

As to `Cc1ncc(CC(=O)Nc2cc([C@H]3CC[C@@H](OC(=O)NC4(C)CCOC4)C3)[nH]n2)s1` (single isomer, unassigned) [Example 482], the inhibition constant (Ki) in assay [1] is 0.55 nM; at GSK3β (H350L) it was 36.2 nM.

In the case of `COc1ccc(CC(=O)Nc2cc([C@H]3CC[C@@H](OC(=O)NC4(C)CCOC4)C3)[nH]n2)cc1` (single isomer, unassigned) [Example 484], the Ki in assay [1] turned out to be 0.32 nM; on GSK3β (H350L) it was 30.3 nM.

For the molecule `COCc1cc(C(=O)Nc2cc([C@H]3CC[C@@H](OC(=O)NC4(C)CCOC4)C3)[nH]n2)n(C)n1` (single isomer, unassigned) [Example 487], the inhibition constant Ki in assay [1] is 0.67 nM; at GSK3β (H350L) it was greater than 47.6 nM.

Take `CC1(NC(=O)O[C@@H]2CC[C@H](c3cc(NC(=O)Cc4cnc(C(F)(F)F)cn4)n[nH]3)C2)CCOC1` (single isomer, unassigned) [Example 493]: the Ki in assay [1] was 0.98 nM; on GSK3β (H350L), 157 nM.

Turning to `CC1(NC(=O)O[C@@H]2CC[C@H](c3cc(NC(=O)Cc4cnc(C(F)(F)F)cn4)n[nH]3)C2)CCOC1` (single isomer, unassigned) [Example 494], the results for the Ki (in assay [1]; on GSK3β (H350L)) were 1.02 nM and 53.3 nM, respectively.

`O=C(Cc1cc(F)cc(F)c1)Nc1cc([C@@H]2CC[C@H](OC(=O)NCC3CCCOC3)C2)[nH]n1` (single isomer, unassigned) [Example 515]: the Ki in assay [1] was determined as 1.25 nM; on GSK3β (H350L), 11.3 nM.

Consider `CCC(CO)CNC(=O)O[C@@H]1CC[C@H](c2cc(NC(=O)Cc3cc(C)no3)n[nH]2)C1` (single isomer, unassigned) [Example 524], for which the inhibition constant (Ki) is 1.69 nM in assay [1] and 10.9 nM at GSK3β (H350L).

As to `CCC(CO)CNC(=O)O[C@@H]1CC[C@H](c2cc(NC(=O)Cc3cc(C)no3)n[nH]2)C1` (single isomer, unassigned) [Example 525], the inhibition constant Ki was 1.24 nM in assay [1] and 7.01 nM on GSK3β (H350L).

For the molecule `CCC(CO)CNC(=O)O[C@@H]1CC[C@H](c2cc(NC(=O)Cc3cnc(C)s3)n[nH]2)C1` (single isomer, unassigned) [Example 528], the Ki in assay [1] is 1.11 nM; on GSK3β (H350L) it was 3.6 nM.

Turning to `CCC(CO)CNC(=O)O[C@@H]1CC[C@H](c2cc(NC(=O)Cc3cnc(C)s3)n[nH]2)C1` (single isomer, unassigned) [Example 529], the values for the Ki (in assay [1]; at GSK3β (H350L)) were 0.73 nM and 3.92 nM, respectively.

For `CCC(CO)CNC(=O)O[C@@H]1CC[C@H](c2cc(NC(=O)Cc3ccc(OC)nc3)n[nH]2)C1` (single isomer, unassigned) [Example 532], the inhibition constant (Ki) was determined as 0.89 nM in assay [1] and 2.97 nM on GSK3β (H350L).

As to `CCC(CO)CNC(=O)O[C@@H]1CC[C@H](c2cc(NC(=O)Cc3ccc(OC)nc3)n[nH]2)C1` (single isomer, unassigned) [Example 533], the inhibition constant (Ki) in assay [1] was found to be 0.77 nM; on GSK3β (H350L) it was 1.41 nM.
